From PubChem BioAssay (NCI)
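Dose response: 5 concentrations. Exposure: 48 h. Format: 96-well plates. Endpoint: linear interpolation; highest concentration if not reached. Definition used: TGI = concentration required for complete inhibition of growth.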

Tests used:
Experiment in all cases: inhibition of tumour cell growth, NCI panel, 48 h
[1] = tested on: HOP-92 NSCLC
[2] = tested on: HT29 colon
[3] = tested on: SK-MEL-2 melanoma
[4] = tested on: CAKI-1 renal
[5] = tested on: NCI-H226 lung
[6] = tested on: MALME-3M melanoma
[7] = tested on: MOLT-4 leukemia
[8] = tested on: SK-MEL-5 melanoma
[9] = tested on: MCF7 breast
[10] = tested on: EKVX NSCLC
[11] = tested on: OVCAR-3 ovarian
[12] = tested on: MDA-MB-231 breast
[13] = tested on: MDA-N
[14] = tested on: RXF 393 renal
[15] = tested on: HL-60(TB) leukemia
[16] = tested on: NCI-H23 lung
[17] = tested on: HCT-116 colon
[18] = tested on: UACC-62 melanoma
[19] = tested on: SR leukemia
[20] = tested on: M14 melanoma
[21] = tested on: SNB-75 CNS
[22] = tested on: UACC-257 melanoma
[23] = tested on: A549 NSCLC
[24] = tested on: OVCAR-8 ovarian
[25] = tested on: SNB-19 CNS
[26] = tested on: SF-539 CNS
[27] = tested on: SN12C renal
[28] = tested on: COLO 205 colon
[29] = tested on: MDA-MB-435
[30] = tested on: T-47D breast
[31] = tested on: PC-3 prostate
[32] = tested on: OVCAR-4 ovarian
[33] = tested on: SF-295 CNS
[34] = tested on: OVCAR-5 ovarian
[35] = tested on: SW-620 colon
[36] = tested on: U251 CNS
[37] = tested on: NCI-H460 lung
[38] = tested on: SF-268 CNS
[39] = tested on: NCI/ADR-RES ovarian
[40] = tested on: SK-MEL-28 melanoma
[41] = tested on: IGROV1 ovarian
[42] = tested on: ACHN renal
[43] = tested on: LOX IMVI melanoma
[44] = tested on: HCT-15 colon
[45] = tested on: RPMI-8226 leukemia
[46] = tested on: UO-31 renal
[47] = tested on: DU-145 prostate
[48] = tested on: HOP-62 NSCLC
[49] = tested on: K-562 leukemia
[50] = tested on: CCRF-CEM leukemia
[51] = tested on: HS 578T breast
[52] = tested on: HCC-2998 colon
[53] = tested on: KM12 colon
[54] = tested on: TK-10 renal
[55] = tested on: 786-0 renal
[56] = tested on: SK-OV-3 ovarian
[57] = tested on: NCI-H522 lung
[58] = tested on: BT-549 breast
[59] = tested on: A498 renal

## COc1ccc(/C=C/c2cc(OC)cc(=O)o2)cc1
[1]
  TGI: > 100 µM
[2]
  TGI: > 100 µM
[3]
  TGI: > 100 µM
[4]
  TGI: > 100 µM
[5]
  TGI: > 100 µM
[6]
  TGI: > 100 µM
[7]
  TGI: > 100 µM
[8]
  TGI: > 100 µM
[9]
  TGI: > 100 µM
[10]
  TGI: > 100 µM
[11]
  TGI: > 100 µM
[12]
  TGI: > 100 µM
[13]
  TGI: > 100 µM
[14]
  TGI: > 100 µM
[15]
  TGI: > 100 µM
[16]
  TGI: > 100 µM
[17]
  TGI: > 100 µM
[18]
  TGI: > 100 µM
[19]
  TGI: > 100 µM
[20]
  TGI: > 100 µM
[21]
  TGI: 44.6 µM
[22]
  TGI: > 100 µM
[23]
  TGI: > 100 µM
[24]
  TGI: > 100 µM
[25]
  TGI: > 100 µM
[26]
  TGI: 46.1 µM
[27]
  TGI: > 100 µM
[28]
  TGI: > 100 µM
[29]
  TGI: > 100 µM
[30]
  TGI: > 100 µM
[31]
  TGI: > 100 µM
[32]
  TGI: > 100 µM
[33]
  TGI: > 100 µM
[34]
  TGI: > 100 µM
[35]
  TGI: > 100 µM
[36]
  TGI: 76.9 µM
[37]
  TGI: > 100 µM
[38]
  TGI: > 100 µM
[39]
  TGI: > 100 µM
[40]
  TGI: > 100 µM
[41]
  TGI: > 100 µM
[42]
  TGI: > 100 µM
[43]
  TGI: > 100 µM
[44]
  TGI: > 100 µM
[45]
  TGI: > 100 µM
[46]
  TGI: > 100 µM
[47]
  TGI: > 100 µM
[48]
  TGI: > 100 µM
[49]
  TGI: > 100 µM
[50]
  TGI: > 100 µM
[51]
  TGI: > 100 µM
[52]
  TGI: > 100 µM
[53]
  TGI: > 100 µM
[54]
  TGI: > 100 µM
[55]
  TGI: > 100 µM
[56]
  TGI: > 100 µM

## COc1ccc(N2C(=O)CSC2c2c[nH]c3ccccc23)cc1 (configuration not stated)
[1]
  TGI: > 100 µM
[2]
  TGI: > 100 µM
[7]
  TGI: > 100 µM
[8]
  TGI: > 100 µM
[9]
  TGI: > 100 µM
[10]
  TGI: > 100 µM
[57]
  TGI: 84.9 µM
[11]
  TGI: > 100 µM
[12]
  TGI: > 100 µM
[13]
  TGI: > 100 µM
[14]
  TGI: > 100 µM
[15]
  TGI: > 100 µM
[16]
  TGI: > 100 µM
[17]
  TGI: > 100 µM
[18]
  TGI: > 100 µM
[19]
  TGI: > 100 µM
[20]
  TGI: > 100 µM
[21]
  TGI: > 100 µM
[22]
  TGI: > 100 µM
[24]
  TGI: > 100 µM
[25]
  TGI: > 100 µM
[27]
  TGI: > 100 µM
[28]
  TGI: > 100 µM
[29]
  TGI: > 100 µM
[30]
  TGI: > 100 µM
[31]
  TGI: > 100 µM
[32]
  TGI: > 100 µM
[33]
  TGI: > 100 µM
[34]
  TGI: > 100 µM
[35]
  TGI: > 100 µM
[36]
  TGI: > 100 µM
[37]
  TGI: > 100 µM
[38]
  TGI: > 100 µM
[40]
  TGI: > 100 µM
[41]
  TGI: > 100 µM
[43]
  TGI: > 100 µM
[44]
  TGI: > 100 µM
[46]
  TGI: > 100 µM
[47]
  TGI: > 100 µM
[48]
  TGI: > 100 µM
[49]
  TGI: > 100 µM
[50]
  TGI: > 100 µM
[52]
  TGI: > 100 µM
[53]
  TGI: > 100 µM
[58]
  TGI: > 100 µM
[54]
  TGI: > 100 µM
[56]
  TGI: > 100 µM

## CCCCN=C(c1ccccc1)N1CCOCC1
[2]
  TGI: > 100 µM
[3]
  TGI: > 100 µM
[4]
  TGI: > 100 µM
[5]
  TGI: > 100 µM
[6]
  TGI: > 100 µM
[7]
  TGI: > 100 µM
[8]
  TGI: > 100 µM
[9]
  TGI: > 100 µM
[10]
  TGI: > 100 µM
[11]
  TGI: > 100 µM
[12]
  TGI: > 100 µM
[13]
  TGI: > 100 µM
[14]
  TGI: > 100 µM
[15]
  TGI: > 100 µM
[16]
  TGI: > 100 µM
[17]
  TGI: > 100 µM
[18]
  TGI: > 100 µM
[19]
  TGI: > 100 µM
[20]
  TGI: > 100 µM
[21]
  TGI: 83.5 µM
[22]
  TGI: > 100 µM
[24]
  TGI: > 100 µM
[25]
  TGI: > 100 µM
[26]
  TGI: > 100 µM
[27]
  TGI: > 100 µM
[28]
  TGI: > 100 µM
[29]
  TGI: > 100 µM
[31]
  TGI: > 100 µM
[33]
  TGI: > 100 µM
[34]
  TGI: > 100 µM
[35]
  TGI: > 100 µM
[36]
  TGI: > 100 µM
[37]
  TGI: > 100 µM
[38]
  TGI: > 100 µM
[39]
  TGI: > 100 µM
[40]
  TGI: > 100 µM
[41]
  TGI: > 100 µM
[42]
  TGI: > 100 µM
[43]
  TGI: > 100 µM
[44]
  TGI: > 100 µM
[45]
  TGI: > 100 µM
[46]
  TGI: > 100 µM
[47]
  TGI: > 100 µM
[48]
  TGI: > 100 µM
[59]
  TGI: > 100 µM
[49]
  TGI: > 100 µM
[50]
  TGI: > 100 µM
[51]
  TGI: > 100 µM
[53]
  TGI: > 100 µM
[58]
  TGI: > 100 µM
[54]
  TGI: > 100 µM
[55]
  TGI: > 100 µM
[56]
  TGI: > 100 µM

## COc1ccc(C2OC(c3ccncc3)=NN2C)cc1OC (configuration not stated)
[1]
  TGI: > 100 µM
[2]
  TGI: > 100 µM
[3]
  TGI: > 100 µM
[4]
  TGI: > 100 µM
[5]
  TGI: > 100 µM
[6]
  TGI: > 100 µM
[7]
  TGI: > 100 µM
[8]
  TGI: > 100 µM
[9]
  TGI: > 100 µM
[10]
  TGI: > 100 µM
[57]
  TGI: > 100 µM
[11]
  TGI: > 100 µM
[12]
  TGI: > 100 µM
[13]
  TGI: > 100 µM
[14]
  TGI: > 100 µM
[15]
  TGI: > 100 µM
[16]
  TGI: > 100 µM
[17]
  TGI: > 100 µM
[18]
  TGI: > 100 µM
[20]
  TGI: > 100 µM
[22]
  TGI: > 100 µM
[23]
  TGI: > 100 µM
[24]
  TGI: > 100 µM
[25]
  TGI: > 100 µM
[26]
  TGI: > 100 µM
[27]
  TGI: > 100 µM
[28]
  TGI: > 100 µM
[29]
  TGI: > 100 µM
[30]
  TGI: > 100 µM
[31]
  TGI: > 100 µM
[32]
  TGI: > 100 µM
[33]
  TGI: > 100 µM
[34]
  TGI: > 100 µM
[35]
  TGI: > 100 µM
[36]
  TGI: > 100 µM
[37]
  TGI: > 100 µM
[38]
  TGI: > 100 µM
[39]
  TGI: > 100 µM
[40]
  TGI: > 100 µM
[41]
  TGI: > 100 µM
[42]
  TGI: > 100 µM
[43]
  TGI: > 100 µM
[44]
  TGI: > 100 µM
[45]
  TGI: > 100 µM
[46]
  TGI: > 100 µM
[47]
  TGI: > 100 µM
[48]
  TGI: > 100 µM
[59]
  TGI: 98.4 µM
[49]
  TGI: > 100 µM
[50]
  TGI: > 100 µM
[51]
  TGI: > 100 µM
[52]
  TGI: > 100 µM
[53]
  TGI: > 100 µM
[54]
  TGI: > 100 µM
[55]
  TGI: > 100 µM
[56]
  TGI: > 100 µM
